From patent US12435380B2, “Compositions and methods for the diagnosis and treatment of ALT cancer” (Texas Tech University System, priority 2018, dated 2025)
Entries after “also recorded” stand apart in the source; their conditions may differ.

How the values were obtained:
[1] = tested on: ALT neuroblastoma cell line CHLA-90; experiment: PRIMA-1MET sensitivity after shRNA knockdown of ATM; format: cell-based, human
Excerpt: FIGS. 20A and 20B illustrate data for cell line CHLA-90. shRNA knockdown of ATM in the ALT neuroblastoma cell line CHLA-90 led to hyper-resistance to PRIMA-1MET. We hypothesize this is due to the loss of constitutive activation of ATM in ALT positive cell lines which would trigger senescence and apoptosis once PRIMA-1MET refolds mutant p53 in the presence of ATM.

[2] = tested on: ALT cell lines from various histologies; experiment: Summary of cytotoxicity (IC50/IC90), ALT vs non-ALT cell lines of all histologies; format: cell-based, human
Excerpt: […] are graphs of PRIMA-1MET cytotoxicity of ALT vs non-ALT cell lines and illustrate PRIMA-1MET IC50/IC90 for all tested cancers. FIG. 8A illustrates IC50 20% O2, and FIG. 8B illustrates IC90 20% O2. IC50 5% O2, and IC90 5% O2 were also observed. Cytotoxicity data on all ALT cell lines from various histologies were compared with non-ALT cell lines of the same histologies, presented as inhibitory+cytotoxic concentrations for 50% (IC50) and 90% (IC90) of the cells.
FIGS. 11A and 11B are graphs showing cytotoxicity of ALT and non-ALT cell lines for IC50 and IC90. Cytotoxicity data on all ALT cell lines from various histologies compared with non-ALT cell lines of the same histologies. The data is presented as inhibitory+cytotoxic concentrations for 50% (IC50) and 90% (IC90) of the cells.

[3] = cited from earlier work
[4] = tested on: p21 and NOXA; experiment: Immunoblots of apoptotic proteins after PRIMA-1MET; format: cell-based, human; details: TP53-mutated, 20 uM, 6, 12 and 24 hours
Experimental: FIGS. 5A and 5B are quantitative representations of immunoblots of apoptotic proteins with three ALT+ cell lines and two TERT+ lines. All cell lines were treated with 20 uM of PRIMA-1MET for 6, 12 and 24 hours. All cell lines were known to have TP53-inactivating mutations. […] We hypothesize this is due to the constitutive activation of ATM in ALT positive cell lines, which will trigger senescence and apoptosis once PRIMA-1MET refolds mutant TP53.

[5] = tested on: ALT+ neuroblastoma cell lines; experiment: DIMSCAN cytotoxicity, neuroblastoma cell lines; format: cell-based, human
Experimental: FIG. 6 is a graph of survival fraction versus PRIMA-1MET concentration and illustrates high cytotoxicity of PRIMA-1MET in ALT+ versus TERT+(ALT negative) NB cell lines. FIG. 6 illustrates NB 5% O2. PRIMA-1MET dose response curves were analyzed using the DIMSCAN cytotoxicity assay system in 4 ALT+ neuroblastoma cell lines compared to 3 non-ALT, but TP53-mut cell lines.
FIGS. 7A and 7B are graphs of survival fraction versus PRIMA-1MET concentration and illustrate cytotoxicity of PRIMA-1MET in ALT+NB cell lines as enhanced by hypoxia. PRIMA-1MET cytotoxicity was assessed for 3 ALT neuroblastoma cell lines in ambient air culture conditions (20% O2) compared with bone marrow level hypoxia (5% O2).

[6] = tested on: ALT+ cell lines; experiment: PRIMA-1MET IC50 with ATM or ATR kinase inhibitor, ALT+ lines; format: cell-based, human; details: with ATM kinase inhibitor (ATMi) or ATR kinase inhibitor (ATRi)
Excerpt: (§1) FIGS. 21A and 21B illustrate effect of inhibition of ATM or ATR kinase on sensitivity of ALT+vs TERT+(ALT-negative) using ATM kinase inhibitor (ATMi) or ATR kinase inhibitor (ATRi) ir ALT+ and TERT+ cell lines;
(§2) FIGS. 21A and 21B illustrate inhibition of kinase inhibitors for ALT+ and TERT+ cell lines Kinase Inhibitors antagonize PRIMA-1MET in ALT+ cell lines.

[7] = tested on: ALT lymphoma cell lines TX-LY-064hnb, TX-LY-245h, COG-LY-357h; experiment: DIMSCAN cytotoxicity, lymphoma cell lines; format: cell-based, human; details: vs TERT+ lines SUP-TI and COG-LY-459, 5% O2, p53 dysfunction
Excerpt: FIGS. 9A and 9B are graphs of survival fraction versus PRIMA-1MET concentration for ALT+p53 non-functional lymphoma 5% O2 and TERT+p53 non-functional lymphoma 5% O2, respectively. […] All lines had some form of p53 dysfunction.

[8] = tested on: ALT rhabdomyosarcoma cell lines; experiment: DIMSCAN cytotoxicity, rhabdomyosarcoma cell lines; format: cell-based, human; details: 5% O2
Experimental: FIGS. 8A and 8B are graphs of survival fraction versus PRIMA-1MET concentration and illustrate Cytotoxicity of PRIMA-1MET in ALT vs TERT+ Rhabdomyosarcoma. FIG. 8A illustrates ALT+ rhabdomyosarcoma grown in 5% O2 and FIG. 8B illustrates TERT+ rhabdomyosarcoma grown in 5% O2. Cytotoxicity of PRIMA-1MET was assessed for ALT and non-ALT (TERT+) rhabdomyosarcoma cell lines using DIMSCAN.

[9] = tested on: ALT+ neuroblastoma xenografts CHLA-90m and COG-N-669x; experiment: ALT neuroblastoma xenografts, tumor volume; set-up: species or system athymic nude mice; details: mouse, in vivo
Experimental: FIGS. 22A and 22B are graphs tumor volume versus time for CHLA-90m and COG-N-669x. The neuroblastoma cell lines CHLA-90m and COG-N-669x were injected into athymic nude mice and drugged with PRIMA-1Met and BSO.

[10] = tested on: TERT+ cell lines; experiment: PRIMA-1MET IC50 with ATM or ATR kinase inhibitor, TERT+ lines; format: cell-based, human; details: with ATM kinase inhibitor (ATMi) or ATR kinase inhibitor (ATRi)
Excerpt: as §1, §2

[11] = tested on: ALT+ p53 non-functional adult cell lines; experiment: Cytotoxicity, ALT+ adult cell lines; format: cell-based, human; details: 5% O2
Excerpt: FIG. 10 is a graph of survival fraction versus PRIMA-1MET concentration for ALT+ adult cell lines showing the high activity of PRIMA1MET against ALT breast cancer, colorectal cancer, ovarian cancer, lung cancer, and leiomyosarcoma cell lines;
FIG. 10 is a graph of survival fraction versus PRIMA-1MET concentration for ALT+p53 non-functional adult cell lines 5% O2. All lines had some form of p53 dysfunction.

[12] = tested on: ALT neuroblastoma cell lines; experiment: PRIMA-1 activity in neuroblastoma cell lines, ALT vs non-ALT; format: cell-based, human; details: ALT vs TP53-mutated non-ALT neuroblastoma cell lines
Excerpt: Neuroblastoma provides a unique cancer for studying the role of changes that lead to inactivation of p53, such as TP53 inactivating mutations. This is because, unlike many other cancers, neuroblastomas at diagnosis and before therapy most frequently are p53 functional and there is a very low incidence of TP53 mutations. However, the incidence of p53 loss-of-function (often by TP53 mutation) increases in progressive disease after therapy. Because PRIMA-1 was developed as a drug that could restore p53 function to tumors with TP53 mutations, we assessed the activity of PRIMA-1 in neuroblastoma cell lines. Our panel of neuroblastoma cell lines includes p53-functional cell lines and those that have p53 loss-of-function and lines with TP53 mutations. The panel includes cell lines with TP53 mutations that are telomerase-positive (high TERT expression) and also TERT-low ALT (C-circle-positive) cell lines.
We have determined that the C-circle assay (specific for ALT cancers) identifies cancers that are especially responsive to PRIMA-1. While PRIMA-1 and APR-246 are being developed to treat TP53-mutated caners, only a subset of the latter respond to the drug as shown in preclinical studies and in the early phase I clinical trials. […]

[13] = tested on: ALT cell lines; experiment: PRIMA-1 activity in ALT cell lines from cancers other than neuroblastoma; format: cell-based, human; details: all ALT cell lines examined to date

SMILES: COCC1(CO)C(=O)C2CCN1CC2 (stereo not drawn) [PRIMA-1MET]
- response to PRIMA-1MET after ATM knockdown [1]: hyper-resistance
- sensitivity by IC50 and IC90, ALT vs non-ALT cell lines ([2]; all tested histologies): significantly more sensitive
- ALT vs non-ALT difference in IC50/IC90 in hypoxia ([2]; bone marrow level hypoxia (5% O2) vs 20% O2): differences were greater
- plasma levels ([3]; at the maximally tolerated dose, out to ~12 hours): > 10000 ng/mL
- maximally tolerated dose ([3]; phase I, hematological malignancies and hormone-refractory prostate cancer): 60 μg/m^2
- bone marrow toxicity ([3]; phase I): not observed
- most common adverse events ([3]; phase I): dizziness, headache, confusion, and other neurological complications
- NOXA expression ([4]; three ALT+ cell lines): NOXA expression during longer treatment
- p21 expression ([4]; three ALT+ cell lines): substantial increase
- NOXA expression ([4]; two non-ALT (TERT+) cell lines): very little increase
- p21 expression ([4]; two non-ALT (TERT+) cell lines): very little increase
- cytotoxicity in hypoxia vs ambient air ([5]; 3 ALT neuroblastoma cell lines, 5% O2 compared with 20% O2): even great cytotoxicity
- sensitivity (survival fraction), ALT vs non-ALT neuroblastoma ([5]; 4 ALT+ vs 3 non-ALT TP53-mut cell lines, 5% O2): significantly more sensitive
- change of IC50 with kinase inhibitors [6]: greatly increases
- sensitivity (survival fraction), ALT vs TERT+ lymphoma [7]: more sensitive
- sensitivity (survival fraction), ALT vs non-ALT rhabdomyosarcoma [8]: more sensitive
- tumor volume, single agent relative to control [9]: greater amount of activity
- change of IC50 with kinase inhibitors [10]: little effect
- activity against ALT breast, colorectal, ovarian, lung cancer and leiomyosarcoma cell lines [11]: high activity

SMILES: O=C1C2CCN(CC2)C1(CO)CO [PRIMA-1]
- activity of PRIMA-1 in ALT vs non-ALT neuroblastoma [12]: significantly greater in ALT neuroblastoma cell lines; also recorded: significantly higher in ALT neuroblastoma
- sensitivity of ALT cell lines to PRIMA-1 [13]: highly sensitive
